# Data published in patent publication US11014911B2, “CDK2 inhibitors” (Pfizer Inc., priority 2019, dated 2021).
# What was measured:
# GSK3β (H350L) = GSK3β (H350L) (Homo sapiens (Human), UniProt P49841); conditions: read-out: GSK3β Ki
# Description: The assay was initiated with the addition of ATP, following 15 minutes pre-incubation of enzyme and inhibitor at room temperature in the reaction mixture. The reaction was stopped after 30 minutes at room temperature by the addition of 50 μL of 80 mM EDTA.
# [1] = molecular target: CDK2/Cyclin E1 full length (Homo sapiens (Human), UniProt P24941); assay: CDK2/Cyclin E1 full length mobility shift assay; type: biochemical
# Sequence of GSK3β (H350L) (P49841 whole entry, stated change not applied): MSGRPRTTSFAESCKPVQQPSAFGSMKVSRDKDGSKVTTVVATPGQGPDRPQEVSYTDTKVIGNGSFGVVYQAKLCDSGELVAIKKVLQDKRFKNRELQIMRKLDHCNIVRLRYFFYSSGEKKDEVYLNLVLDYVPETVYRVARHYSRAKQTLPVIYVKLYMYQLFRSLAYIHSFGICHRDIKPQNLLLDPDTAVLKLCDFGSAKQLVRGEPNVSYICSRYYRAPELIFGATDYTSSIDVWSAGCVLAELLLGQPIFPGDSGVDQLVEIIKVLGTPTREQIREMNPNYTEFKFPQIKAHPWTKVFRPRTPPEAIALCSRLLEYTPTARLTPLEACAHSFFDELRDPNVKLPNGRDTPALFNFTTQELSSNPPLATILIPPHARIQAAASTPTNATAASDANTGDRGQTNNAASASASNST
Ki (GSK3β (H350L)) [nM],Ki [1] [nM],Structure (SMILES)
117,0.17,CC[C@H](C)NC(=O)O[C@@H]1CC[C@H](c2cc(NC(=O)Cc3cc(OC)ccc3S(C)(=O)=O)n[nH]2)C1 [Example 50]
5.75,0.08,C[C@H]1CCCN1C(=O)O[C@@H]1CC[C@H](c2cc(NC(=O)Cc3cnc4ncnn4c3)n[nH]2)C1 [Example 141]
5.58,0.06,COc1cc(CC(=O)Nc2cc([C@H]3CC[C@@H](OC(=O)N4[C@@H](C)C[C@@H]4C)C3)[nH]n2)ccn1 [Example 149]
5.12,0.41,"COc1cc(CC(=O)Nc2cc([C@@H]3CC[C@H](OC(=O)N[C@H]4CC[C@@](C)(O)CC4)C3)[nH]n2)ccn1 [Example 568, (1S,3R)-3-(3-{[(2-methoxypyridin-4-yl)acetyl]amino}-1H-pyrazol-5-yl)cyclopentyl (cis-4-hydroxy-4-methylcyclohexyl)carbamate]"
10.9,0.2,CC[C@H](C)NC(=O)O[C@@H]1CC[C@H](c2cc(NC(=O)Cc3cc(O)ncc3S(C)(=O)=O)n[nH]2)C1 [Example 52]
32,0.62,"CC(C)(C)NC(=O)O[C@@H]1CC[C@H](c2cc(NC(=O)Cc3ccccn3)n[nH]2)C1 [Example 294, (1R,3S)-3-{3-[(pyridin-2-ylacetyl)amino]-1H-pyrazol-5-yl}cyclopentyl tert-butylcarbamate]"
16.3,4.18,"COc1cc(CC(=O)Nc2cc([C@@H]3CC[C@H](OC(=O)N4C[C@@](C)(O)[C@@H]4C)C3)[nH]n2)ccn1 [Example 624, (1S,3R)-3-(3-{[(2-methoxypyridin-4-yl)acetyl]amino}-1H-pyrazol-5-yl)cyclopentyl (2S,3R)-3-hydroxy-2,3-dimethylazetidine-1-carboxylate]"
94.9,0.58,"CC[C@H](C)NC(=O)O[C@@H]1CC[C@H](c2cc(NC(=O)Cc3cnn(C)c3C)n[nH]2)C1 [Example 337, (1R,3S)-3-(3-{[(1,5-dimethyl-1H-pyrazol-4-yl)acetyl]amino}-1H-pyrazol-5-yl)cyclopentyl (2S)-butan-2-ylcarbamate]"
9.2,0.31,"Cc1cc(CC(=O)Nc2cc([C@H]3CC[C@@H](OC(=O)N4CCOCC4(C)C)C3)[nH]n2)on1 [Example 649, (1R,3S)-3-(3-{[(3-methyl-1,2-oxazol-5-yl)acetyl]amino}-1H-pyrazol-5-yl)cyclopentyl 3,3-dimethylmorpholine-4-carboxylate]"
43.4,0.85,"CCNC(=O)O[C@@H]1CC[C@H](c2cc(NC(=O)Cc3cc(F)cc(F)c3)n[nH]2)C1 [Example 233, (1R,3S)-3-(3-{[(3,5-difluorophenyl)acetyl]amino}-1H-pyrazol-5-yl)cyclopentyl ethylcarbamate]"
> 47.6,0.17,COCc1cc(C(=O)Nc2cc([C@H]3CC[C@@H](OC(=O)N[C@@H](C)C4CC4)C3)[nH]n2)n(C)n1 [Example 104]
55.4,0.15,CC1(NC(=O)O[C@@H]2CC[C@H](c3cc(NC(=O)Cc4ccno4)n[nH]3)C2)CC1 [Example 128]
> 191,3.91,"CCCNC(=O)O[C@@H]1CC[C@H](c2cc(NC(=O)c3ccc(C)nc3C)n[nH]2)C1 [Example 181, (1R,3S)-3-(3-{[(2,6-dimethylpyridin-3-yl)carbonyl]amino}-1H-pyrazol-5-yl)cyclopentyl propylcarbamate]"
38.8,0.15,CC(C)(C)NC(=O)O[C@@H]1CC[C@H](c2cc(NC(=O)Cc3ccno3)n[nH]2)C1 [Example 108]
89.1,0.3,"COCCn1nccc1C(=O)Nc1cc([C@H]2CC[C@@H](OC(=O)NC(C)(C)C)C2)[nH]n1 [Example 308, (1R,3S)-3-[3-({[1-(2-methoxyethyl)-1H-pyrazol-5-yl]carbonyl}amino)-1H-pyrazol-5-yl]cyclopentyl tert-butylcarbamate]"
54,0.2,CC[C@H](C)NC(=O)O[C@@H]1CC[C@H](c2cc(NC(=O)c3ccnn3CCOC)n[nH]2)C1 [Example 51]
8.01,0.45,"COc1cc(CC(=O)Nc2cc([C@H]3CC[C@@H](OC(=O)N4C[C@@H](O)[C@@H]4C)C3)[nH]n2)ccn1 [Example 612, (1R,3S)-3-(3-{[(2-methoxypyridin-4-yl)acetyl]amino}-1H-pyrazol-5-yl)cyclopentyl (2S,3R)-3-hydroxy-2-methylazetidine-1-carboxylate]"
40.2,0.15,Cn1cc(CC(=O)Nc2cc([C@H]3CC[C@@H](OC(=O)NC(C)(C)C)C3)[nH]n2)cn1 [Example 112]
9.86,0.21,COc1cc(CC(=O)Nc2cc([C@H]3CC[C@@H](OC(=O)N(C)C(C)C)C3)[nH]n2)ccn1 [Example 58]
28.3,0.55,"Cc1ncc(CC(=O)Nc2cc([C@H]3CC[C@@H](OC(=O)N[C@@H]4CCC[C@@H]4C)C3)[nH]n2)s1 [Example 463, (1R,3S)-3-(3-{[(2-methyl-1,3-thiazol-5-yl)acetyl]amino}-1H-pyrazol-5-yl)cyclopentyl [(1R,2S)-2-methylcyclopentyl]carbamate]"
> 95.3,3.68,"CCCNC(=O)O[C@@H]1CC[C@H](c2cc(NC(=O)c3ccc(OC)nc3)n[nH]2)C1 [Example 183, (1R,3S)-3-(3-{[(6-methoxypyridin-3-yl)carbonyl]amino}-1H-pyrazol-5-yl)cyclopentyl propylcarbamate]"
27.1,0.19,Cc1cc(CC(=O)Nc2cc([C@H]3CC[C@@H](OC(=O)NC(C)(C)C)C3)[nH]n2)on1 [Example 107]
94.4,1.58,"CC[C@H](C)NC(=O)O[C@@H]1CC[C@H](c2cc(NC(=O)Cc3cc(C)nn3C)n[nH]2)C1 [Example 338, (1R,3S)-3-(3-{[(1,3-dimethyl-1H-pyrazol-5-yl)acetyl]amino}-1H-pyrazol-5-yl)cyclopentyl (2S)-butan-2-ylcarbamate]"

Structure (SMILES),Ki (GSK3β (H350L)) [nM],Ki [1] [nM]
"CCNC(=O)O[C@@H]1CC[C@H](c2cc(NC(=O)Cc3ccnc(OC)c3)n[nH]2)C1 [Example 232, (1R,3S)-3-(3-{[(2-methoxypyridin-4-yl)acetyl]amino}-1H-pyrazol-5-yl)cyclopentyl ethylcarbamate]",34.1,1.54
"CC[C@H](C)NC(=O)O[C@@H]1CC[C@H](c2cc(NC(=O)Cc3ccnc(C)c3)n[nH]2)C1 [Example 335, (1R,3S)-3-(3-{[(2-methylpyridin-4-yl)acetyl]amino}-1H-pyrazol-5-yl)cyclopentyl (2S)-butan-2-ylcarbamate]",23.9,0.41
"C[C@H](CC(F)(F)F)NC(=O)O[C@@H]1CC[C@H](c2cc(NC(=O)Cc3cnn(C)c3)n[nH]2)C1 [Example 394, (1R,3S)-3-(3-{[(1-methyl-1H-pyrazol-4-yl)acetyl]amino}-1H-pyrazol-5-yl)cyclopentyl [(2R)-4,4,4-trifluorobutan-2-yl]carbamate]",42.7,0.42
"CCCNC(=O)O[C@@H]1CC[C@H](c2cc(NC(=O)Cc3cc(OC)ccc3S(C)(=O)=O)n[nH]2)C1 [Example 213, (1R,3S)-3-[3-({[5-methoxy-2-(methylsulfonyl)phenyl]acetyl}amino)-1H-pyrazol-5-yl]cyclopentyl propylcarbamate]",183,0.32
"CC[C@H](C)NC(=O)O[C@@H]1CC[C@H](c2cc(NC(=O)Cc3nc(C)cs3)n[nH]2)C1 [Example 343, (1R,3S)-3-(3-{[(4-methyl-1,3-thiazol-2-yl)acetyl]amino}-1H-pyrazol-5-yl)cyclopentyl (2S)-butan-2-ylcarbamate]",26.1,0.77
"COc1ncc(CC(=O)Nc2cc([C@H]3CC[C@@H](OC(=O)NC4(C)CCOCC4)C3)[nH]n2)s1 [Example 509, (1R,3S)-3-(3-{[(2-methoxy-1,3-thiazol-5-yl)acetyl]amino}-1H-pyrazol-5-yl)cyclopentyl (4-methyltetrahydro-2H-pyran-4-yl)carbamate]",30.2,0.5
"CCCNC(=O)O[C@H]1CC[C@@H](c2cc(NC(=O)Cc3ccccc3OCCN)n[nH]2)C1 [Example 197, (1S,3R)-3-[3-({[2-(2-aminoethoxy)phenyl]acetyl}amino)-1H-pyrazol-5-yl]cyclopentyl propylcarbamate]",> 191,0.49
"COCCn1nccc1C(=O)Nc1cc([C@H]2CC[C@@H](OC(=O)NC(C)C)C2)[nH]n1 [Example 278, (1R,3S)-3-[3-({[1-(2-methoxyethyl)-1H-pyrazol-5-yl]carbonyl}amino)-1H-pyrazol-5-yl]cyclopentyl propan-2-ylcarbamate]",56.7,0.52
CC[C@H](C)NC(=O)O[C@H]1CC[C@@H](c2cc(NC(=O)c3cnnn3C)n[nH]2)C1 [Example 31],45.1,0.16
"CC[C@H](C)NC(=O)O[C@@H]1CC[C@H](c2cc(NC(=O)Cc3cnc(C(F)(F)F)cn3)n[nH]2)C1 [Example 363, (1R,3S)-3-[3-({[5-(trifluoromethyl)pyrazin-2-yl]acetyl}amino)-1H-pyrazol-5-yl]cyclopentyl (2S)-butan-2-ylcarbamate]",52,0.35
"CC[C@H](C)NC(=O)O[C@@H]1CC[C@H](c2cc(NC(=O)Cc3ccccc3S(=O)(=O)NC)n[nH]2)C1 [Example 374, (1R,3S)-3-[3-({[2-(methylsulfamoyl)phenyl]acetyl}amino)-1H-pyrazol-5-yl]cyclopentyl (2S)-butan-2-ylcarbamate]",10.8,0.32
"CCCNC(=O)O[C@@H]1CC[C@H](c2cc(NC(=O)Cc3ccc(OC)cc3S(C)(=O)=O)n[nH]2)C1 [Example 212, (1R,3S)-3-[3-({[4-methoxy-2-(methylsulfonyl)phenyl]acetyl}amino)-1H-pyrazol-5-yl]cyclopentyl propylcarbamate]",77.2,0.67
"Cc1ncc(CC(=O)Nc2cc([C@@H]3CC[C@H](OC(=O)N[C@H]4CC[C@@H](O)CC4)C3)[nH]n2)s1 [Example 550, (1S,3R)-3-(3-{[(2-methyl-1,3-thiazol-5-yl)acetyl]amino}-1H-pyrazol-5-yl)cyclopentyl (cis-4-hydroxycyclohexyl)carbamate]",3.12,0.36
